From paper PMC9481026 (PLoS ONE, 2022)
In brackets after ≈: the same amount, converted by molar mass. Several values for one entry are separate records, joined by “and”; a condition that tells them apart may be missing. Equal entries are not always repeated. Where two headings read alike, the source gives them in different places.

Columns and labels:
[1] = tested on: Vero cells
[2] = tested on: RVFV strain MP-12; test: microbe, parasite or virus in culture; assay type: cell-based, Rift Valley fever virus
[3] = tested on: LACV; test: microbe, parasite or virus in culture; assay type: cell-based, La Crosse virus; conditions: read-out: LACV EC50
[4] = tested on: RVFV MP-12; test: microbe, parasite or virus in culture; assay type: cell-based, Rift Valley fever virus; conditions: read-out: Estimated EC50
[5] = tested on: RVFV ZH501; test: microbe, parasite or virus in culture; assay type: cell-based, Rift Valley fever virus
[6] = tested on: ZIKV; test: microbe, parasite or virus in culture; assay type: cell-based, Zika virus; conditions: read-out: ZIKV EC50
[7] = tested on: C. neoformans; test: microbe, parasite or virus in culture; assay type: cell-based; conditions: for MIC80: Cryptococcus neoformans, read-out: C. neoformans (MIC80, μM)
[8] = target: T1, Human RNase H1 (Homo sapiens, UniProt O60930); test: biochemical
T1 construct: made in house; host or cells: E. coli
T1 sequence (O60930 1-286): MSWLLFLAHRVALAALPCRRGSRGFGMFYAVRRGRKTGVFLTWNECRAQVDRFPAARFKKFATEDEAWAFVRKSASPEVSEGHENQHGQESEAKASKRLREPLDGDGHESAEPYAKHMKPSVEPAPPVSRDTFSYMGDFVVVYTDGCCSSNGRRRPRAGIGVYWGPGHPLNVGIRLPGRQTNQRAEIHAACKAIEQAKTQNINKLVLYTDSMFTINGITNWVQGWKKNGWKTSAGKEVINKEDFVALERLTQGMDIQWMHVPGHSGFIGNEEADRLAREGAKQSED

[9] = tested on: RVFV strain MP-12; test: microbe, parasite or virus in culture; assay type: cell-based, Rift Valley fever virus; conditions: read-out: A549 EC50
[10] = tested on: A549 cells
[11] = tested on: HepDES19
[12] = in vitro; conditions: African green monkey
[13] = tested on: Staphylo-coccus spp.; test: organism not typed; assay type: cell-based
[14] = tested on: E. coli; test: microbe, parasite or virus in culture; assay type: cell-based
[15] = in vitro; conditions: human
[16] = read-out: Human RNase H1 (IC50)
[17] = Rift Valley fever virus, Vero, 24 h

Compound	CC50 [1]	EC50 ([2]; read-out: EC50)	EC50 [3]	EC50 [4]	EC50 [6]	EC50 ([2]; read-out: Vero EC50)	C. neoformans (MIC80, μM) [7]	IC50 [8, 16]	EC50 [9]	CC50 [10]	CC50 [11]	Staphylo-coccus spp. (MIC80, μM) [13]	further results
O=c1nc(NO)ccn1[C@@H]1O[C@H](CO)[C@@H](O)[C@H]1O [EIDD-1931, β-D-N4-Hydroxycytidine, reference compound]	> 120 µM	5.16 µM and 5.2 µM	3.6 µM	5 µM	1.7 µM and 1.74 µM								EC50 ([5]; read-out: EC50): 30.5 µM
CC(=Nc1ccc(C(F)(F)F)cc1)c1c(C)cc(=O)n(O)c1O [Compound 517]	> 120 µM		> 120 µM	13 µM	> 120 µM	> 120 µM	24 µM	135 µM	95.8 µM	71.8 µM	91 µM		
O=C(Cc1ccccc1)Sc1cccccc1=O [Compound 680]					23 µM								EC50 [2, 17]: 6.3 µM; EC50 ([2]; Rift Valley fever virus, Vero, read-out: Vero EC50): 6.3 µM; MIC80 [7]: 0.4 µM (≈ 0.103 µg/mL); CC50 ([12]; CC50): > 120 µM; CC50 ([12]; Estimated CC50): 0.9 µM; CC50 ([12]; Vero CC50): > 120 µM; EC50 ([3]; La Crosse virus, Vero C1008, 24 h): 31.3 µM; IC50 [8]: 652 µM; EC50 ([9]; Rift Valley fever virus, A549, 24 h): 11.6 µM; MIC80 ([13]; read-out: Staphylo-coccus spp. (MIC80, μM)): 13 µM (≈ 3.33 µg/mL); EC50 ([4]; Rift Valley fever virus, Vero): 0.3 µM; MIC80 ([14]; Escherichia coli, read-out: E. coli (MIC80, μM)): 30 µM (≈ 7.69 µg/mL); EC50 ([6]; Zika virus, Vero C1008, 48 h): 19.5 µM
CC(=O)c1c(C)cc(O)c(=O)c(O)c1-c1cccc2ccccc12 [Compound 331]	80.4 µM	15.8 µM		2 µM		15.8 µM	11 µM	448 µM	17.7 µM	> 240 µM	36.6 µM	67 µM	
CC[C@H](C)[C@H](NC(=O)OCC1c2ccccc2-c2ccccc21)C(=O)Sc1cccccc1=O [Compound 686]	> 120 µM		45.4 µM	2.16 µM	> 120 µM	6.3 µM	0.85 µM	> 500 µM	7.9 µM	67.6 µM	42.6 µM	30 µM	
Cc1cc(O)c(=O)c(O)cc1C(=O)NCc1ccccc1 [Compound 388]	> 120 µM			19 µM			11 µM	166 µM			19.8 µM	67 µM	EC50 ([2]; read-out: RVFV (EC50)): 9 µM; E. coli (MIC80, μM) [14]: 67 µM
Cc1cc(O)c(=O)c(O)cc1C(=O)N1CCN(C(c2ccc(F)cc2)c2ccc(F)cc2)CC1 [Compound 1017]													CC50 ([1]; African green monkey): 54.7 µM; EC50 [2, 17]: 8 µM; MIC80 [7]: 6 µM (≈ 2.8 µg/mL); CC50 ([12]; CC50): > 120 µM; CC50 [15]: 3.9 µM; IC50 [8]: 30 µM; EC50 ([4]; Rift Valley fever virus, Vero): 3.44 µM
O=c1c(O)cccc(S(=O)(=O)c2cccc3ccccc23)c1O [Compound 698]		11.7 µM		8 µM			38 µM	261 µM			13.7 µM	20 µM	E. coli (MIC80, μM) [14]: 44 µM
Cc1cc(O)c(=O)c(O)cc1C(=O)Nc1ccccc1 [Compound 389]	> 120 µM			16 µM			3.5 µM	309 µM			26.5 µM	44 µM	EC50 ([2]; read-out: RVFV (EC50)): 8.8 µM; E. coli (MIC80, μM) [14]: 44 µM
CCCCCCSc1cccc(O)c(=O)c1O [Compound 840]	> 120 µM	31.6 µM	> 120 µM	14 µM	> 120 µM	31.6 µM	1.0 µM	73 µM	15.4 µM	142 µM	21.5 µM		
NC(=O)c1ncn([C@@H]2O[C@H](CO)[C@@H](O)[C@H]2O)n1 [Ribavirin, reference compound]													EC50 [2, 17]: 22 µM; CC50 ([12]; CC50): > 120 µM; EC50 ([4]; Rift Valley fever virus, Vero): 22 µM; EC50 ([5]; Rift Valley fever virus, Vero, 18 h): 73.6 µM
O=c1c(O)cccc(SCCc2ccccc2)c1O [Compound 704]	> 120 µM	14.3 µM	89.2 µM	14 µM	19.5 µM	14.3 µM	1.8 µM	25 µM	20 µM	43 µM	21.6 µM	20 µM	
